From ChEMBL document CHEMBL5614405 (J Med Chem, 2024)
The source made the active and inactive calls. The rule behind the calls is not given here.

What was measured:
[1] = Toxicity in chicken embryo chorioallantoic membrane assessed as irritation score at 1.55 mM measured after 5 mins by microscopic analysis relative to Latanoprost; assay type: tissue-based, Gallus gallus; conditions: in vivo, 1550 µM
[2] = target: Rho-associated protein kinase 2 (Homo sapiens, UniProt O75116); experiment: Inhibition of ROCK2 (unknown origin) incubated for 60 mins in presence of ATP by mobility shift assay
Sequence of Rho-associated protein kinase 2 (O75116 whole entry): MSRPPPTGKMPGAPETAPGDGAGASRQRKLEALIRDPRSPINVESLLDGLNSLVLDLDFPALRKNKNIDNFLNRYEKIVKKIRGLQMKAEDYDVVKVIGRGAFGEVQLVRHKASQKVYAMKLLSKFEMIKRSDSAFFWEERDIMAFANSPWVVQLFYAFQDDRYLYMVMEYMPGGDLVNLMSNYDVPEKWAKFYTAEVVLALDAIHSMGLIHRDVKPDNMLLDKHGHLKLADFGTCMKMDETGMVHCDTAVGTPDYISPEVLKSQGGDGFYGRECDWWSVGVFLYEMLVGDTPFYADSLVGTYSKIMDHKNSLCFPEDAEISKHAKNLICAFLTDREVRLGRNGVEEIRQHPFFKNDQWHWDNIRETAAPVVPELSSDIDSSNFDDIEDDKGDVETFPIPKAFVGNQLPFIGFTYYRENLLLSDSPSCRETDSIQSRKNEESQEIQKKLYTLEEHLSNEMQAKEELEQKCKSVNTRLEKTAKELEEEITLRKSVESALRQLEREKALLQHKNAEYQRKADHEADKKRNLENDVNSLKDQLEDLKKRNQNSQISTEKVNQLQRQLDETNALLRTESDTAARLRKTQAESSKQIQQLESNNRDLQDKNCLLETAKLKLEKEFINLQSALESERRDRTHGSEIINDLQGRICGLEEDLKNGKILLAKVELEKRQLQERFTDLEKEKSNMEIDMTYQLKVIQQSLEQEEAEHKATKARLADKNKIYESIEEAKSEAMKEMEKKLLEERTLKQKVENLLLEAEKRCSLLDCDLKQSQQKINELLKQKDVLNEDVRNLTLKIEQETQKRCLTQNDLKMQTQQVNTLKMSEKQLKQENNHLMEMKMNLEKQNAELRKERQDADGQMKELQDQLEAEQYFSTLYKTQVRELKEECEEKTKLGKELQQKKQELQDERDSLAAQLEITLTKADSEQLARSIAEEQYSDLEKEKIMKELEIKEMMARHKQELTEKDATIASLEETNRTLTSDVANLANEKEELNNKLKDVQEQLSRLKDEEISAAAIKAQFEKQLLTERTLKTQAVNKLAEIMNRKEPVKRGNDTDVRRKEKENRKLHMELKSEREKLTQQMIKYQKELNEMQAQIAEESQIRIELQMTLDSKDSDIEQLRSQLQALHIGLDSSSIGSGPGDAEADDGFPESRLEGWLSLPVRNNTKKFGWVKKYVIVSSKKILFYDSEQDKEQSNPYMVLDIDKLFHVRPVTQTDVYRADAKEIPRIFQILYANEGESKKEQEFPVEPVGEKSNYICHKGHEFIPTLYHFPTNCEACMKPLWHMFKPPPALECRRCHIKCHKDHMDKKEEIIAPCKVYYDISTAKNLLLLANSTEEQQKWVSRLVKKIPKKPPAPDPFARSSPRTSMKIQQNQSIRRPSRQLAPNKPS

[3] = target: Rho-associated protein kinase 1 (Homo sapiens, UniProt Q13464); experiment: Inhibition of ROCK1 (unknown origin) incubated for 10 mins in presence of ATP by mobility shift assay
Sequence of Rho-associated protein kinase 1 (Q13464 whole entry): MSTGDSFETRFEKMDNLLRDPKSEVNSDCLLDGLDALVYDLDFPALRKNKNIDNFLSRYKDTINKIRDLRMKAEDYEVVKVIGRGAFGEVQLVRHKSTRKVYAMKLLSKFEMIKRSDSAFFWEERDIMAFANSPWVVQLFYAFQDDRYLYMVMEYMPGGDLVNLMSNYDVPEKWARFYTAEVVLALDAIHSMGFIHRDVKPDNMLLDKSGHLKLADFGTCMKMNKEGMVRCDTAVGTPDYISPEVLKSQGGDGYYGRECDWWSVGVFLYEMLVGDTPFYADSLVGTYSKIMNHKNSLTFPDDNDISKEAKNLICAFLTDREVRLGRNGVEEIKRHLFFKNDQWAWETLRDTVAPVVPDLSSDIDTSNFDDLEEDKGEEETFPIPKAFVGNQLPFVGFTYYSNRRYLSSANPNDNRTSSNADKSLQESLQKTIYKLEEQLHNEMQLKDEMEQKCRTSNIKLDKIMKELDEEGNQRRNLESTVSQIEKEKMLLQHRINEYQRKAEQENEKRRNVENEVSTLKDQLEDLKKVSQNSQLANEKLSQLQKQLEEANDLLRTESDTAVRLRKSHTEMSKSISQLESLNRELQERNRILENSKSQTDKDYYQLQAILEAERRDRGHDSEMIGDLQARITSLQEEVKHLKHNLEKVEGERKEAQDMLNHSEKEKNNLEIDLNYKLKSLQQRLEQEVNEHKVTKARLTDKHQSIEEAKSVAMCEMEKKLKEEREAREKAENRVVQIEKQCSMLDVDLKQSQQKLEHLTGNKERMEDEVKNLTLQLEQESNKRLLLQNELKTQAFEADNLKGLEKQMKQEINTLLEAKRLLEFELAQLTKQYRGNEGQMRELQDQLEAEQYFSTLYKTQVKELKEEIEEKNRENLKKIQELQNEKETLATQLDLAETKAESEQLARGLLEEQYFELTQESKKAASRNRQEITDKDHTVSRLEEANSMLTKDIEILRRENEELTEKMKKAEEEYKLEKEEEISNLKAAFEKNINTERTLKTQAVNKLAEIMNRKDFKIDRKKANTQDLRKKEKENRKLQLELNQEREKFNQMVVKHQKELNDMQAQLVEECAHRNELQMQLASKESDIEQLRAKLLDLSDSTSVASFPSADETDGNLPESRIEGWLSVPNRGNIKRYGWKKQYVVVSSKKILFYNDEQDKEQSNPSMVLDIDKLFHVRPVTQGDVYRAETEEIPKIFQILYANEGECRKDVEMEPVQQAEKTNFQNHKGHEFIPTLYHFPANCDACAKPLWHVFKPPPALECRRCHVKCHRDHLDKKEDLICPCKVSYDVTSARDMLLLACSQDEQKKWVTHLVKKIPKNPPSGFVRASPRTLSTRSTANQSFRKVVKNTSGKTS

[4] = Toxicity in New Zealand rabbit assessed as appearance of conjunctival congestion by measuring ocular irritation score at 0.028 % TOP administration on left eye measured after 4 days by draize eye irritation test; assay type: tissue-based, Oryctolagus cuniculus; conditions: in vivo, topical_or_ocular, 96 h, time 4 day
[5] = Toxicity in chicken embryo chorioallantoic membrane assessed as irritation score at 1.55 mM measured after 5 mins in presence of methyl 3-(nitrooxy)benzoate by microscopic analysis; assay type: tissue-based, Gallus gallus; conditions: in vivo, 1550 µM
[6] = Toxicity in New Zealand rabbit assessed as appearance of conjunctival congestion by measuring ocular irritation score at 0.028 % TOP administration on left eye measured after 3 days by draize eye irritation test; assay type: tissue-based, Oryctolagus cuniculus; conditions: in vivo, topical_or_ocular, 72 h, time 3 day
[7] = Toxicity in New Zealand rabbit assessed as appearance of conjunctival congestion by measuring incidence of ocular irritation at 0.028 % TOP administration on left eye measured for 5 days by draize eye irritation test; assay type: tissue-based, Oryctolagus cuniculus; conditions: in vivo, topical_or_ocular, 120 h, time 5 day
[8] = Toxicity in New Zealand rabbit assessed as appearance of conjunctival congestion by measuring ocular irritation score at 0.028 % TOP administration on left eye measured after 5 days by draize eye irritation test; assay type: tissue-based, Oryctolagus cuniculus; conditions: in vivo, topical_or_ocular, 120 h, time 5 day
[9] = Toxicity in New Zealand rabbit assessed as appearance of conjunctival congestion by measuring ocular irritation score at 0.028 % TOP administration on left eye measured after 2 days by draize eye irritation test; assay type: tissue-based, Oryctolagus cuniculus; conditions: in vivo, topical_or_ocular, 48 h, time 2 day
Mus musculus [10] = experiment: Anti-glaucoma activity in magnetic microbead induced occlusion C57BL/6J mouse model assessed as reduction in intraocular pressure at 441.27 uM,TOP administration on right eye measured after 1 hr by tonometric analysis; assay type: functional, organism-based
[11] = Toxicity in New Zealand rabbit assessed as appearance of conjunctival congestion by measuring ocular irritation score at 0.028 % TOP administration on left eye measured after 6 days by draize eye irritation test; assay type: tissue-based, Oryctolagus cuniculus; conditions: in vivo, topical_or_ocular, 144 h, time 6 day
[12] = Toxicity in New Zealand rabbit assessed as appearance of conjunctival congestion by measuring ocular irritation score at 0.028 % TOP administration on left eye measured after 7 days by draize eye irritation test; assay type: tissue-based, Oryctolagus cuniculus; conditions: in vivo, topical_or_ocular, 168 h, time 7 day
Mus musculus [13] = experiment: Anti-glaucoma activity in magnetic microbead induced occlusion C57BL/6J mouse model assessed as increase in retinal ganglion cell population at 441.27 uM,TOP administrated on right eye thrice a day for 21 days by immunofluorescence based confocal microscopic analysis; assay type: functional, organism-based; conditions: time 21.0 day
[14] = Toxicity in New Zealand rabbit assessed as appearance of conjunctival congestion by measuring ocular irritation score at 0.028 % TOP administration on left eye measured after 1 day by draize eye irritation test; assay type: tissue-based, Oryctolagus cuniculus; conditions: in vivo, topical_or_ocular, 24 h
[15] = Toxicity in chicken embryo chorioallantoic membrane assessed as irritation score at 1.55 mM measured after 5 mins by microscopic analysis relative to Netarsudil; assay type: tissue-based, Gallus gallus; conditions: in vivo, 1550 µM
Oryctolagus cuniculus [16] = experiment: Anti-glaucoma activity in methylcellulose-induced acute intraocular hypertensive New Zealand rabbit model assessed as reduction in intraocular pressure at 1.55 mM,TOP administration on conjunctival sac measured for 1 to 4 hrs; assay type: functional, organism-based; conditions: time 1-4 hrs
Oryctolagus cuniculus [17] = experiment: Anti-glaucoma activity in methylcellulose-induced acute intraocular hypertensive New Zealand rabbit model assessed as reduction in intraocular pressure at 1.55 mM,TOP administration on conjunctival sac measured for 5 to 7 hrs; assay type: functional, organism-based; conditions: time 5-7 hrs

With O=C(CCC/C=C\C[C@@H]1[C@@H](CC[C@@H](O)CCc2ccccc2)[C@H](O)C[C@@H]1O)OCCCCO[N+](=O)[O-] [LATANOPROSTENE BUNOD] the Activity [1] was “Toxic”.

For NC[C@H](C(=O)Nc1ccc2cnccc2c1)c1ccc(COC(=O)c2cccc(CO[N+](=O)[O-])c2)cc1, the IC50 [2] was 25.3 nM and the IC50 [3] was 35.4 nM.

C[C@H]1CNCCCN1S(=O)(=O)c1cccc2cncc(F)c12 showed an IC50 [2] of 13.1 nM.

With Cc1ccc(C(=O)OCc2ccc([C@@H](CN)C(=O)Nc3ccc4cnccc4c3)cc2)c(C)c1 the Activity [4] was 3.67, the Activity [5] was “Non-Toxic” and the Activity [6] was 3. It also gave an Activity [7] of 100%, an Activity [8] of 2.33 and an Activity [9] of 3.67. For the same molecule, the Activity (Mus musculus [10]) was “Active”, the Activity [11] was 1.33 and the Activity [12] was 1. The Activity (Mus musculus [13]) was “Active” and the Activity [14] was 3.33.

For CS(=O)(=O)O.CS(=O)(=O)O.NCC(C(=O)Nc1ccc2cnccc2c1)c1ccc(COC(=O)c2cccc(CO[N+](=O)[O-])c2)cc1 (stereo not given), the IC50 [2] was 1.48 nM, the Activity [15] was “Toxic” and the Activity (Oryctolagus cuniculus [16]) was “Active”. The Activity (Oryctolagus cuniculus [17]) was “Active” and the IC50 [3] was 2.54 nM.
